Results: patent US8846066B2, “Methods and related compositions for reduction of fat and skin tightening” (The Regents of the University of California, priority 2004, dated 2014)

Experiments:
[1] = test system: adipocytes; assay: Adipocyte survival on addition of PC to 4.75% DC; format: cell-based; conditions: 5% phosphatidylcholine added to 4.75% DC
Protocol: FIG. 9 illustrates survival of adipocytes when phosphatidylcholine is added to 4.75% sodium deoxycholate solution. On y-axis, 1 represents 100% survival. All % concentrations are w/v %. Survival of the cells in the absence of DC and PC is on an average 0.113.

[2] = test system: porcine skin (epidermis, dermis, subcutaneous tissue, muscle); assay: Histology of full thickness porcine skin after injection
Protocol: Histology was performed by injecting stock reagent solutions (0.5 mL) into full thickness porcine skin at various levels (epidermis, dermis, and subcutaneous tissue) with 1.0 mL syringes and 30-gauge, 0.5 inch needles. Needle depth was visualized along the margin of the porcine tissue with the intent of saturating the target tissue. One hour after incubation with PBS at 37° C., multiple 5.0 mm biopsy specimens were obtained from the injected sites, each condition performed in triplicate. Tissue was fixed in formaldehyde, paraffin-embedded, and stained with hematoxylin-eosin. Specimens were evaluated by a board-certified dermatopathologist who was blinded to the treatment protocol.

[3] = test system: porcine fat tissue; assay: MTS assay in fresh porcine fat specimens; format: cell-based; conditions: PBF or 5% solutions, 4 hours
Protocol: To measure cell viability after detergent treatment, HaCaT human keratinocyte cells were cultured in DMEM (Dulbecco's modified Eagle's medium) supplemented with 10% fetal calf serum, penicillin, and streptomycin. […] Cell viability was determined by an absorbance spectrophotometer (at 490 nm) after 4 hour incubation with the assay at 37° C. To determine cell viability in fresh tissue, fat specimens were incubated for 4 hours in 24 well plates with stock reagents and the MTS assay. Tissue specimens were then visualized for color change and the amount of MTS in their supernatants was measured by absorbance (at 490 nm). All studies were performed in triplicate. Absorbance at 490 nm (OD 490) is proportional to the number of living cells in the culture.
Porcine tissue was obtained immediately after sacrifice, shaved, and placed on ice for a maximum of four hours before use. […] Calcein retention was determined by tissue fluorescence using purple (411 nm) light and visually observing the emitted green (500 nm) light using an emission filters.
Fresh porcine skin was used to determine if the effects of these detergent substances on cultured cells were similar in tissue. […] The difference in fat cell viability between the solutions was quantified by measuring the absorbance (at 490) of the supernatants collected from the treated fat specimens (FIG. 3b). […]

phosphatidylcholine
effect of phosphatidylcholine on adipolysis [1]: inhibits adipolysis slightly

CCCCCCCCCCCC[N+](C)(C)CC(=O)[O-] [Empigen, lauryldimethylbetaine, reference compound]
histologic changes in epidermis, dermis, adnexal structures [2]: loss of fibroblast nuclear staining and hyalinization of dermal collagen

alkylaryl polyether alcohol [Triton, reference compound]
fat cell viability (MTS purple dye, absorbance at 490) [3]: comparable loss of purple dye
